Laboratory results from PubChem BioAssay (NCI).
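The compound was tested at five concentrations on cells cultured in 96-well plates, with a 48-hour exposure period. GI50 is the concentration that inhibits growth by half. TGI: concentration producing complete growth inhibition.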

Tests used:
Assay in all cases: inhibition of tumour cell growth, NCI panel, 48 h
IGROV1 ovarian = system: IGROV1 ovarian
K-562 leukemia = system: K-562 leukemia
MDA-MB-435 = system: MDA-MB-435
NCI-H226 lung = system: NCI-H226 lung
SK-MEL-5 melanoma = system: SK-MEL-5 melanoma
SNB-75 CNS = system: SNB-75 CNS
U251 CNS = system: U251 CNS
UACC-62 melanoma = system: UACC-62 melanoma
A549 NSCLC = system: A549 NSCLC
CCRF-CEM leukemia = system: CCRF-CEM leukemia

SMILES	GI50 (IGROV1 ovarian)	TGI (IGROV1 ovarian)	GI50 (K-562 leukemia)	TGI (K-562 leukemia)	GI50 (MDA-MB-435)	TGI (MDA-MB-435)	GI50 (NCI-H226 lung)	TGI (NCI-H226 lung)	GI50 (SK-MEL-5 melanoma)	TGI (SK-MEL-5 melanoma)	GI50 (SNB-75 CNS)	TGI (SNB-75 CNS)	GI50 (U251 CNS)	TGI (U251 CNS)	GI50 (UACC-62 melanoma)	TGI (UACC-62 melanoma)	GI50 (A549 NSCLC)	TGI (A549 NSCLC)	GI50 (CCRF-CEM leukemia)	TGI (CCRF-CEM leukemia)
Cc1cc(C)c(C#N)c(Sc2nc(C)c([N+](=O)[O-])c(C)c2C#N)n1	3.3 µM	12.3 µM	2.9 µM	> 100 µM	2.1 µM	4.75 µM	2.99 µM	10.5 µM	4.02 µM	16.4 µM	3.29 µM	21.8 µM	3.1 µM	10.8 µM	2.96 µM	11.5 µM	–	–	–	–
COC(=O)c1c(-c2cccs2)oc(-c2cccs2)c1C(=O)OC	36.2 µM	> 100 µM	44.9 µM	> 100 µM	26 µM	87 µM	38.2 µM	98.3 µM	–	–	> 73.6 µM	> 100 µM	59.6 µM	> 100 µM	27.3 µM	> 100 µM	39.1 µM	> 100 µM	27.4 µM	> 100 µM
Cc1ccc(C)c(N2C(=O)C(=O)C(c3nc4ccccc4o3)C(=O)C2=O)c1	–	> 100 µM	–	–	–	–	–	> 100 µM	–	> 100 µM	–	> 100 µM	–	> 100 µM	–	> 100 µM	–	> 100 µM	–	> 100 µM
COc1cccc2cc(N(C)c3nc(C)nc4c3CCC4)ccc12	< 0.01 µM	23.9 µM	< 0.01 µM	31.5 µM	–	–	12.7 µM	32.4 µM	< 0.01 µM	0.0161 µM	–	24.2 µM	< 0.01 µM	12.8 µM	–	18.1 µM	< 0.01 µM	14.2 µM	< 0.01 µM	14.7 µM
COc1ccc2nc(C(=O)c3ccccc3)c(C)cc2c1	–	> 73.1 µM	–	> 100 µM	–	–	–	> 86 µM	–	12.3 µM	–	14.4 µM	–	10.8 µM	–	> 100 µM	–	> 70 µM	–	> 100 µM
O=C(C(=O)n1ncc(Cl)c(Cl)c1=O)n1ncc(Cl)c(Cl)c1=O	–	> 77.3 µM	–	> 100 µM	–	–	–	> 100 µM	–	97.2 µM	–	97.2 µM	–	> 100 µM	–	32.2 µM	–	> 100 µM	–	29.7 µM
Cc1c(C(=O)O)n(C)c(=O)n(C)c1=O	–	> 100 µM	–	> 100 µM	–	–	–	> 100 µM	–	> 100 µM	–	> 100 µM	–	> 100 µM	–	> 100 µM	–	> 100 µM	–	> 100 µM
Cc1cccc(C(=O)O)c1C(=O)c1cccc2ccccc12	–	> 100 µM	–	> 100 µM	–	–	–	> 100 µM	–	> 100 µM	–	> 100 µM	–	> 100 µM	–	> 100 µM	–	> 100 µM	–	> 100 µM
CCOC(=O)c1cc(-c2ccc(-c3cc(C(=O)OCC)c(C#N)c(N)c3C#N)cc2)c(C#N)c(N)c1C#N	–	> 100 µM	–	> 100 µM	–	–	–	> 100 µM	–	–	–	–	–	> 100 µM	–	> 100 µM	–	> 100 µM	–	> 100 µM
N#CC(C(=O)CCCC(=O)Nc1ccc(Cl)cc1Cl)c1ccccc1 (configuration not stated)	–	> 100 µM	–	> 100 µM	–	–	–	> 100 µM	–	> 100 µM	–	–	–	> 100 µM	–	> 100 µM	–	> 100 µM	–	> 100 µM
CC(C)c1cc(C(C)C)c(S(=O)(=O)N=[N+]=[N-])c(C(C)C)c1	–	> 100 µM	–	> 100 µM	–	–	–	> 100 µM	–	> 100 µM	–	> 100 µM	–	> 100 µM	–	> 100 µM	–	> 100 µM	–	> 100 µM
COc1ccc(-c2cncn2-c2cc(OC)c(OC)c(OC)c2)cc1	< 0.0157 µM	1.53 µM	0.443 µM	> 100 µM	0.0178 µM	0.0567 µM	1.97 µM	82.6 µM	0.0523 µM	5.25 µM	–	–	0.412 µM	> 46.4 µM	0.124 µM	> 33.7 µM	0.471 µM	> 63.8 µM	0.843 µM	18.5 µM
CCCCCC(=O)Nc1nc2nc[nH]c2c(=O)[nH]1	–	> 100 µM	–	> 100 µM	–	–	–	> 100 µM	–	> 100 µM	–	> 100 µM	–	> 100 µM	–	> 100 µM	–	> 100 µM	–	> 100 µM
COCCOc1cc(C)cc(/C=C(C)/C=C/C2=C(C)CCCC2(C)C)n1	–	> 100 µM	–	–	–	–	–	> 100 µM	–	39.8 µM	–	> 100 µM	–	> 100 µM	–	> 100 µM	–	> 100 µM	–	–
NC1c2ccccc2Nc2ccccc21	–	21.7 µM	–	14.5 µM	–	–	–	27.9 µM	–	17.1 µM	–	24.4 µM	–	–	–	15.5 µM	–	19.8 µM	–	25.7 µM
CCOC(=O)/C(=C/c1cccc(Cl)c1)N(CC)CC	–	> 100 µM	–	> 100 µM	–	–	–	> 100 µM	–	> 100 µM	–	> 100 µM	–	> 100 µM	–	> 100 µM	–	> 100 µM	–	> 100 µM
O=C(NNc1ccc(Cl)cc1)C1CCC(CNS(=O)(=O)c2ccccc2Cl)CC1 (configuration not stated)	42.5 µM	> 100 µM	1.96 µM	5.73 µM	4.77 µM	24.1 µM	20.2 µM	> 100 µM	18.4 µM	39.2 µM	–	–	–	–	2.81 µM	9.64 µM	8.99 µM	> 100 µM	39.2 µM	> 100 µM
CC1OC(=O)C(O)=C1O (configuration not stated)	–	> 100 µM	–	> 100 µM	–	–	–	> 100 µM	–	> 100 µM	–	> 100 µM	–	> 100 µM	–	> 100 µM	–	> 100 µM	–	> 100 µM
Clc1ccc(-c2c3ccc(=[N+]4CCCCC4)cc-3oc3cc(N4CCCCC4)ccc23)cc1	–	–	0.153 µM	0.779 µM	–	–	–	–	0.156 µM	0.291 µM	0.0494 µM	0.333 µM	–	–	0.18 µM	0.452 µM	–	–	0.153 µM	1.97 µM
COC1CC(O)C(OC(=O)c2ccccc2)C(C)O1 (configuration not stated)	–	> 100 µM	–	> 100 µM	–	–	–	> 100 µM	–	> 100 µM	–	–	–	> 100 µM	–	> 100 µM	–	> 100 µM	–	> 100 µM
